Measurements from article PMC6267684, “Pharmacokinetic evaluation of the PNC disassembler metarrestin in wild-type and Pdx1-Cre;LSL-Kras^G12D/+;Tp53^R172H/+ (KPC) mice, a genetically engineered model of pancreatic cancer” (Cancer Chemotherapy and Pharmacology, 2018).

How the values were obtained:
[1] = system: PNC in murine KPC tumors; experiment: PNC prevalence in KPC tumors (immunofluorescence with α-PTB1 antibodies); format: in vivo, KPC mice; conditions: after 14-day treatment with 25 mg/kg by oral gavage; untreated 38.2%
Method: Blood samples were collected in K2EDTA tubes and plasma was harvested after centrifugation at 3000 rpm for 10 min. Tissue samples were weighed and flash-frozen for PK and PD mRNA expression analyses, embedded into OCT blocks for PNC determination and processed into FFPE blocks for histopathology assessment. All PK samples were stored at − 80 °C until analysis.
To establish a dose–response relationship between intratumor exposure levels of metarrestin and mechanism of action of the drug in vivo, we first confirmed the ability of metarrestin to suppress PNC structures in murine pancreatic KPC tumors. The prevalence of PNC bodies (expressed as the fraction of cells containing one or more PNCs) was 38.2% in untreated murine KPC tumors (Fig. 4a) which was similar to the PNC prevalence in the previously examined NOD/IL2 gamma (null) PANC1 metastasis model (35.1%) and higher than in cancer cell lines derived from primary pancreatic tumors (average ~ 23.5%). […]
Fig. 4 Intratumor metarrestin exposure correlates with PNC prevalence and mRNA expression levels of transcriptional regulators FOXA1 and FOXO6. a Metarrestin disassembles the peri-nucleolar compartment (PNC) in KPC tumors. […] Relative expression levels of FOXA1 and FOXO6 determined by qRT-PCR and normalized to reference genes. […]

[2] = system: FOXA1 mRNA; experiment: FOXA1 mRNA expression in KPC tumors (RNA-seq, qRT-PCR); format: in vivo, KPC mice; conditions: vs intratumor exposure
Method: Pancreas cancer tissues samples or adjacent, uninvolved normal pancreas from vehicle or metarrestin-treated KPC animals collected at 0, 3, and 9 h after last dose of 25 mg/kg metarrestin were homogenized in PureLink Lysis Buffer (PureLink RNA Mini Kit, ThermoFisher Scientific Waltham, MA) at 4 °C using a TissueLyser II bead mill (Qiagen, Valencia, CA, manufactured by Retsch, Newtown, PA). Total RNA was isolated using the Life Technologies PureLink® RNA Mini Kit, quantified on a NanoDrop 1000 spectrophotometer (ThermoFisher Scientific, Waltham, MA). […]
Total RNA libraries were prepared using the Illumina TruSeq® Stranded Total RNA LT (with Ribo-Zero™Human/Mouse/Rat) kit according the manufacturer’s instructions. […] Sequencing output ranged from 89 to 132 million reads per sample. Adapter trimming and base filtering was done using Trimmomatic software version 0.3, and the trimmed reads were aligned to mouse reference genome (GRCm38/mm10) and Ensembl annotation (version 70) using TopHat2 version 2.0.8.
A total of 450 ng of total RNA was used for single-strand complementary DNA synthesis using a SuperScript III First-Strand kit (Invitrogen, Carlsbad, CA). […] Reaction products were read in a Bio-Rad CFX96 Touch real-time PCR detection system (Bio-Rad Laboratories, Hercules, CA). […]

[3] = system: KPC and PC3M cells; experiment: UPLC–MS/MS measurement of cellular metarrestin concentration; format: cell-based; conditions: 1 and 10 µM, within 40 min

N=c1c2c(-c3ccccc3)c(-c3ccccc3)n(Cc3ccccc3)c2ncn1[C@H]1CC[C@H](O)CC1 [metarrestin, Trans-4-(7-benzyl-4-imino-5,6-diphenyl-4,7-dihydro-3H-pyrrolo[2,3-d]pyrimidin-3-yl) cyclohexanol]
PNC prevalence in KPC tumors [1]: 9.8%
FOXA1 mRNA expression in KPC tumors [2]: Dose-dependent normalization
cellular levels, % of media concentrations [3]: 40–100%
